Test system: Nitrilase isolated from Acinetobacter sp. AK 226 strain
Test: Substrate specificity of purified nitrilase (hydrolysis of nitriles to organic acid and ammonia)
Method: 0.5 μmol of potassium phosphate buffer solution (pH 8.0) and 1.34 μmol of 2-(4'-isobutylphenyl)propionitrile are added to an appropriate amount of an enzyme solution so as to give a volume of 0.5 ml. After the mixture is reacted at 30° C. for 30 minutes, 0.1 ml of 80% acetic acid is added thereto to stop the reaction. The amounts of 2-(4'-isobutylphenyl)propionic acid and ammonia are measured. The amount of 2-(4'-isobutylphenyl)propionic acid is measured by means of high performance liquid chromatography wherein a Bondapack C18 column is used and a solvent obtained by mixing 0.05M phosphate buffer solution (pH 3) with 50% (v/v) of acetonitrile is used. The assay is performed at an absorbance of 254 nm.
amount of ammonia formed is measured according to J. Clin. Path., 13, 156 (1960).
The amount of enzyme required for forming 1 μmol of 2-(4'-isobutylphenyl)propionic acid or ammonia per one minute is referred to as one unit.

Row | Reaction rate with the S isomer compared with the R isomer (racemic substrate) | Compound | Relative activity
1 | – | N#Cc1cccc(C#N)c1 [m-Phthalonitrile] | 80.7 ×10^2%
2 | – | N#Cc1cccnc1 [Nicotinonitrile] | 52.7 ×10^2%
3 | – | C=C(C)C#N [Methacrylonitrile] | 68.4 ×10^2%
4 | – | N#Cc1ccc(F)cc1 [p-Fluorobenzonitrile] | 83.9 ×10^2%
5 | – | N#CCCCC#N [Glutaronitrile] | 50.9 ×10^2%
6 | – | N#Cc1cccc(Cl)c1 [m-Chlorobenzonitrile] | 68.9 ×10^2%
7 | – | CCCCCC#N [n-Capronitrile] | 5.93 ×10^2%
8 | – | CCCC#N [n-Butyronitrile] | 17.4 ×10^2%
9 | – | CC(C#N)c1ccccc1 (stereo not drawn) [α-Phenylpropionitrile] | 0.534 ×10^2%
10 | – | N#CCO [Hydroxyacetonitrile] | 11.4 ×10^2%
11 | much higher | CC(C)Cc1ccc(C(C)C#N)cc1 (stereo not shown) | –
12 | – | N#CC(N)c1ccccc1 (stereo not shown) [2-Phenylglycinonitrile] | 0.000 ×10^2%
13 | – | Cc1cccc(C#N)c1 [m-Tolunitrile] | 74.8 ×10^2%
14 | – | N#Cc1cccc([N+](=O)[O-])c1 [m-Nitrobenzonitrile] | 47.6 ×10^2%
15 | – | CC#N [Acetonitrile] | 45.3 ×10^2%
16 | – | C=CC#N [Acrylonitrile] | 144 ×10^2%
17 | – | CC(C)CCC#N [iso-Capronitrile] | 8.12 ×10^2%
18 | – | Thiopheneacetonitrile | 45.5 ×10^2%
19 | – | N#Cc1ccccc1F [o-Fluorobenzonitrile] | 50.4 ×10^2%
20 | – | Cc1ccccc1C#N [o-Tolunitrile] | 0.743 ×10^2%
21 | – | N#CCCl [Chloroacetonitrile] | 108 ×10^2%
22 | – | N#CC(Br)CBr (stereo not shown) [2,3-Dibromopropionitrile] | 90.3 ×10^2%
